# Experimental data taken from the supplement of paper PMC4862054.
# Tested on: MDA-MB-468
# Test: normalised response (% of control), CellTiter-Glo; higher = more viable cells (100 = DMSO, 0 = benzethonium chloride kill control)
# Conditions: incubation time: 72 h
# Summary of the method: (§1)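 Breast cancer cell lines were exposed for 72 h in 384-well plates to compound at 5 concentrations, 10-fold apart, covering a 10,000-fold range fixed for each compound. Plates were read for CellTox Green fluorescence and CellTiter-Glo luminescence and normalised to 0.1 % DMSO (100) and a positive kill control (0). Each value is the normalised signal at one concentration of the series.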
row,Compound,normalised response [%]
1,N#Cc1ccc(C(c2ccc(C#N)cc2)n2cncn2)cc1 [Letrozole] (10000 nM),97
2,Nc1ncn([C@H]2C[C@H](O)[C@@H](CO)O2)c(=O)n1 [Decitabine] (10000 nM),31.5
3,CC[C@H](Nc1ncnc2[nH]cnc12)c1nc2cccc(F)c2c(=O)n1-c1ccccc1 [GS-1101] (10000 nM),64.7
4,CC1=C(/C=C/C(C)=C/C=C/C(C)=C/C(=O)O)C(C)(C)CCC1 [Tretinoin] (10000 nM),81
5,COc1cc([C@@H]2c3cc4c(cc3[C@@H](O[C@@H]3O[C@@H]5CO[C@@H](c6cccs6)O[C@H]5[C@H](O)[C@H]3O)[C@H]3COC(=O)[C@H]23)OCO4)cc(OC)c1O [Teniposide] (10000 nM),7.53

# Tested on: HCC1937
# Test: as above
# Conditions: incubation time: 72 h
# Summary of the method: as §1
row,Compound,normalised response [%]
1,O=C(Cc1ccc(-c2ccc(OCCN3CCOCC3)cc2)cn1)NCc1ccccc1 [KX2-391] (10000 nM),69.1
2,CC[C@@H]1C(=O)N(C)c2cnc(Nc3ccc(C(=O)NC4CCN(C)CC4)cc3OC)nc2N1C1CCCC1 [BI 2536] (1000 nM),74.7
3,Nc1ccccc1NC(=O)c1ccc(CNC(=O)OCc2cccnc2)cc1 [Entinostat] (10000 nM),67.4
4,Cc1cnc(NC(=O)Nc2cc(Br)c(C)cc2OC[C@@H]2CNCCO2)cn1 [Rabusertib] (1000 nM),80.9
5,N#Cc1ccc(C(c2ccc(C#N)cc2)n2cncn2)cc1 [Letrozole] (10000 nM),100
6,Nc1ncn([C@H]2C[C@H](O)[C@@H](CO)O2)c(=O)n1 [Decitabine] (10000 nM),74.9
7,CC[C@H](Nc1ncnc2[nH]cnc12)c1nc2cccc(F)c2c(=O)n1-c1ccccc1 [GS-1101] (10000 nM),78.7
8,CC1=C(/C=C/C(C)=C/C=C/C(C)=C/C(=O)O)C(C)(C)CCC1 [Tretinoin] (10000 nM),72.3
9,COc1cc([C@@H]2c3cc4c(cc3[C@@H](O[C@@H]3O[C@@H]5CO[C@@H](c6cccs6)O[C@H]5[C@H](O)[C@H]3O)[C@H]3COC(=O)[C@H]23)OCO4)cc(OC)c1O [Teniposide] (10000 nM),22.8

# Tested on: MDA-MB-231
# Test: as above
# Conditions: incubation time: 72 h
# Summary of the method: as §1
row,Compound,normalised response [%]
1,O=C(Cc1ccc(-c2ccc(OCCN3CCOCC3)cc2)cn1)NCc1ccccc1 [KX2-391] (10000 nM),46.6
2,CC[C@@H]1C(=O)N(C)c2cnc(Nc3ccc(C(=O)NC4CCN(C)CC4)cc3OC)nc2N1C1CCCC1 [BI 2536] (1000 nM),72.4
3,Nc1ccccc1NC(=O)c1ccc(CNC(=O)OCc2cccnc2)cc1 [Entinostat] (10000 nM),39.1
4,Cc1cnc(NC(=O)Nc2cc(Br)c(C)cc2OC[C@@H]2CNCCO2)cn1 [Rabusertib] (1000 nM),92.1
5,N#Cc1ccc(C(c2ccc(C#N)cc2)n2cncn2)cc1 [Letrozole] (10000 nM),91.5
6,Nc1ncn([C@H]2C[C@H](O)[C@@H](CO)O2)c(=O)n1 [Decitabine] (10000 nM),93
7,CC[C@H](Nc1ncnc2[nH]cnc12)c1nc2cccc(F)c2c(=O)n1-c1ccccc1 [GS-1101] (10000 nM),73.6
8,CC1=C(/C=C/C(C)=C/C=C/C(C)=C/C(=O)O)C(C)(C)CCC1 [Tretinoin] (10000 nM),63.5
9,COc1cc([C@@H]2c3cc4c(cc3[C@@H](O[C@@H]3O[C@@H]5CO[C@@H](c6cccs6)O[C@H]5[C@H](O)[C@H]3O)[C@H]3COC(=O)[C@H]23)OCO4)cc(OC)c1O [Teniposide] (10000 nM),15.6

# Tested on: HCC1143
# Test: as above
# Conditions: incubation time: 72 h
# Summary of the method: as §1
row,Compound,normalised response [%]
1,O=C(Cc1ccc(-c2ccc(OCCN3CCOCC3)cc2)cn1)NCc1ccccc1 [KX2-391] (10000 nM),56.3
2,CC[C@@H]1C(=O)N(C)c2cnc(Nc3ccc(C(=O)NC4CCN(C)CC4)cc3OC)nc2N1C1CCCC1 [BI 2536] (1000 nM),39.3
3,Nc1ccccc1NC(=O)c1ccc(CNC(=O)OCc2cccnc2)cc1 [Entinostat] (10000 nM),19
4,Cc1cnc(NC(=O)Nc2cc(Br)c(C)cc2OC[C@@H]2CNCCO2)cn1 [Rabusertib] (1000 nM),99.5
5,N#Cc1ccc(C(c2ccc(C#N)cc2)n2cncn2)cc1 [Letrozole] (10000 nM),97.7
6,Nc1ncn([C@H]2C[C@H](O)[C@@H](CO)O2)c(=O)n1 [Decitabine] (10000 nM),83.6
7,CC[C@H](Nc1ncnc2[nH]cnc12)c1nc2cccc(F)c2c(=O)n1-c1ccccc1 [GS-1101] (10000 nM),81.3
8,CC1=C(/C=C/C(C)=C/C=C/C(C)=C/C(=O)O)C(C)(C)CCC1 [Tretinoin] (10000 nM),84.7
9,COc1cc([C@@H]2c3cc4c(cc3[C@@H](O[C@@H]3O[C@@H]5CO[C@@H](c6cccs6)O[C@H]5[C@H](O)[C@H]3O)[C@H]3COC(=O)[C@H]23)OCO4)cc(OC)c1O [Teniposide] (10000 nM),10.8

# Tested on: SK-BR-3
# Test: as above
# Conditions: incubation time: 72 h
# Summary of the method: as §1
row,Compound,normalised response [%]
1,O=C(Cc1ccc(-c2ccc(OCCN3CCOCC3)cc2)cn1)NCc1ccccc1 [KX2-391] (10000 nM),19.9
2,CC[C@@H]1C(=O)N(C)c2cnc(Nc3ccc(C(=O)NC4CCN(C)CC4)cc3OC)nc2N1C1CCCC1 [BI 2536] (1000 nM),26.9
3,Nc1ccccc1NC(=O)c1ccc(CNC(=O)OCc2cccnc2)cc1 [Entinostat] (10000 nM),14.2
4,Cc1cnc(NC(=O)Nc2cc(Br)c(C)cc2OC[C@@H]2CNCCO2)cn1 [Rabusertib] (1000 nM),48.6
5,N#Cc1ccc(C(c2ccc(C#N)cc2)n2cncn2)cc1 [Letrozole] (10000 nM),101
6,Nc1ncn([C@H]2C[C@H](O)[C@@H](CO)O2)c(=O)n1 [Decitabine] (10000 nM),77.7
7,CC[C@H](Nc1ncnc2[nH]cnc12)c1nc2cccc(F)c2c(=O)n1-c1ccccc1 [GS-1101] (10000 nM),62.9
8,CC1=C(/C=C/C(C)=C/C=C/C(C)=C/C(=O)O)C(C)(C)CCC1 [Tretinoin] (10000 nM),21.8
9,COc1cc([C@@H]2c3cc4c(cc3[C@@H](O[C@@H]3O[C@@H]5CO[C@@H](c6cccs6)O[C@H]5[C@H](O)[C@H]3O)[C@H]3COC(=O)[C@H]23)OCO4)cc(OC)c1O [Teniposide] (10000 nM),6.25
